The record followed here is patent US20040037799A1, “Malodor suppression by fragrance composition” (priority 2002, published 2004).

The nature of data set [1]: Air diffusion coefficient of perfume materials. It counts as physicochemical.
The nature of data set [2]: Malodor coverage by individual fragrance materials (Table 1).

In turn, `C=C1C2CCC(C2)C1(C)C` (stereo not shown) had an Air Diffusion Coefficient in data set [1] of 0.0613 cm²/s. Further, in data set [2] (tested only at 5 and 38 C), the “Average Coverage” value is recorded as 3.0.
`c1ccc(CCOC2CCCCC2)cc1`: the Air Diffusion Coefficient in data set [1] is 0.0477 cm²/s. Also, the “Average Coverage” value in data set [2] (scale not defined) is 2.3.
For `CCCCCCCCCCC=CC#N` the same measures were 0.0432 cm²/s and 3.0.
On the same counts, the results for `CC(=O)O[C@@H]1C[C@H]2CC[C@]1(C)C2(C)C` (racemic) [ISO BORNYL ACETATE] are 0.0492 cm²/s and 2.6.
The molecule `C=CCOC(=O)CCC1CCCCC1` [ALLYL CYCLOHEXYL PROPIONATE] registered an Air Diffusion Coefficient in data set [1] of 0.0486 cm²/s. In addition, the “Average Coverage” value in data set [2] (scale not defined) came to 2.6.
`C=CCOC(=O)CCCCCC` [ALLYL HEPTOATE (C-7), ALLYL HEPTOATE] showed an Air Diffusion Coefficient in data set [1] of 0.0523 cm²/s. The “Average Coverage” value in data set [2] (scale not defined) is recorded as 2.6.
On the same counts, the results for `CC(C)CCOCCc1ccccc1` [ANTHER] are 0.0486 cm²/s and 2.6.
On to `O=Cc1ccccc1` [BENZALDEHYDE], for which the Air Diffusion Coefficient in data set [1] is 0.075 cm²/s.
On to `CO[C@]1(C)CC[C@@]23C[C@@H]1C(C)(C)[C@@H]2CC[C@H]3C` [CEDRAMBER], for which, in data set [2] (scale not defined), the “Average Coverage” value is 2.3.
`C[C@@H]1CC[C@H]2C(C)(C)[C@H]3C[C@@]12CC[C@@]3(C)O` [CEDROL LIQUID 10%, CEDROL] had an Air Diffusion Coefficient in data set [1] of 0.0425 cm²/s. Besides, the “Average Coverage” value in data set [2] (scale not defined) is 3.3.
In data set [1], `CCCCCCCCCCCC#N` [CLONAL] came in with an Air Diffusion Coefficient of 0.0466 cm²/s. The “Average Coverage” value in data set [2] (scale not defined) was found to be 3.0.
For `OCCC1CCCCC1` [CYCLOHEXYL ETHANOL] the same measures were 0.0629 cm²/s and 2.0.
For `CCCCCC1CCCC1=O` (stereo not shown) [DELPHONE, FIRMENICH] the same measures were 0.0546 cm²/s and 4.0.
On the same counts, the results for `CC1CCC(C(C)(C)O)CC1` (stereo not shown) [DIHYDRO TERPINEOL] are 0.0547 cm²/s and 2.0.
`CCOC(=O)CC(C)=O` [ETHYL ACETOACETATE] showed an Air Diffusion Coefficient in data set [1] of 0.0554 cm²/s. Moreover, the “Average Coverage” value in data set [2] (scale not defined) is recorded as 1.6.
On the same counts, the results for `CCc1ccc(CC(C)(C)C=O)cc1` [FLORAZONE] are 0.0499 cm²/s and 3.6.
Turning to `CC(C)CC1CC(C)(O)CCO1` (stereo not shown) [FLOROL], in data set [1], the Air Diffusion Coefficient is 0.0521 cm²/s. The “Average Coverage” value in data set [2] (scale not defined) stood at 3.0.
On the same counts, the results for `CC(=O)OC/C=C(\C)CCC=C(C)C` [GERANYL ACETATE] are 0.0478 cm²/s and 1.0.
For `CCCCCCC(C=O)=Cc1ccccc1` [HEXYL CINNAMIC ALDEHYDE] the same measures were 0.0445 cm²/s and 2.3.
For `CC(=O)C1(C)CC2=C(CCCC2(C)C)CC1C` (stereo not shown) [ISO E SUPER] the same measures were 0.0418 cm²/s and 3.3.
`CC(C=O)Cc1ccc(C(C)(C)C)cc1` (stereo not shown) [LILIAL] yielded an Air Diffusion Coefficient in data set [1] of 0.047 cm²/s. Moreover, the “Average Coverage” value in data set [2] (scale not defined) was found to be 2.6.
On the same counts, the results for `CC(C)C1CCC(CO)CC1` (stereo not shown) [MAYOL] are 0.0545 cm²/s and 2.3.
`CC(C)=CCCC(C)C=O` (stereo not shown) [MELONAL] yielded an Air Diffusion Coefficient in data set [1] of 0.0579 cm²/s. Further, the “Average Coverage” value in data set [2] (scale not defined) was found to be 2.0.
For `C=CCc1ccc(OC)cc1` [METHYL CHAVICOL] the same measures were 0.0591 cm²/s and 2.3.
In the case of `COc1ccc2ccccc2c1` [NEROLIN YARA YARA 10%], in data set [2] (scale not defined), the “Average Coverage” value came to 2.6.
Consider `COC(Cc1ccccc1)OC` [PADMA], for which, in data set [1], the Air Diffusion Coefficient was 0.0571 cm²/s. For the same molecule, in data set [2] (scale not defined), the “Average Coverage” value stood at 3.3.
As for `CC(C)OCCc1ccccc1` [PETIOLE], the “Average Coverage” value in data set [2] (scale not defined) came to 2.6.
Regarding `OCCc1ccccc1` [PHENYL ETHYL ALCOHOL], the Air Diffusion Coefficient in data set [1] was 0.0676 cm²/s. Besides, the “Average Coverage” value in data set [2] (scale not defined) came to 4.3.
In data set [1], `CC(=O)OCC=C(C)C` [PRENYL ACETATE] registered an Air Diffusion Coefficient of 0.0649 cm²/s. The “Average Coverage” value in data set [2] (scale not defined) worked out at 1.0.
`CC1CC(C)(c2ccccc2)CO1` (stereo not shown) [RHUBAFURAN]: in data set [2] (scale not defined), the “Average Coverage” value is given as 2.6.
The same measure, in the same setting: the value for `CC1=CCC2C3CC(C2C1)C1(C3)OC1C` (stereo not shown) [RHUBOFIX] was 3.0.
`CC/C(=C\CC1CC=C(C)C1(C)C)CO` (stereo not shown) [SANDRANOL] returned an Air Diffusion Coefficient in data set [1] of 0.0444 cm²/s. For the same molecule, the “Average Coverage” value in data set [2] (scale not defined) is on record as 3.3.
Turning to `CCC(C)(O)CCCC(C)C` (stereo not shown) [TETRAHYDRO LINAILOOL], the Air Diffusion Coefficient in data set [1] worked out at 0.0533 cm²/s. The “Average Coverage” value in data set [2] (scale not defined) came to 2.6.
Take `CC(=O)c1cc2c(cc1C)C(C)(C)C(C)CC2(C)C` (stereo not shown) [TONALID 10%]: the “Average Coverage” value in data set [2] (scale not defined) is reported as 2.0.
As for `CCCCCC1(C)CCC(C)(C)C1=O` (stereo not shown) [VELOUTONE], in data set [1], the Air Diffusion Coefficient came to 0.0459 cm²/s. Besides, the “Average Coverage” value in data set [2] (scale not defined) stood at 3.0.
In data set [1], METHYL IONONE GAMMA yielded an Air Diffusion Coefficient of 0.0453 cm²/s. Also, the “Average Coverage” value in data set [2] (scale not defined) turned out to be 3.3.
With “METHYL NAPTHYL KETONE [METHYL NAPTHYL KETONE 10%]”, in data set [1], the Air Diffusion Coefficient was found to be 0.0552 cm²/s. Besides, the “Average Coverage” value in data set [2] (scale not defined) was found to be 2.0.
